Tests used:
[1] = test system: MDA-MB-231-Luc highly metastatic human breast cancer cells; assay: in vivo metastasis mouse model, disease free survival; set-up: species or system Nude mice; conditions: 3.5 mg/Kg once daily for 10 days; MDA-MB-231-Luc i.v.; monitored up to 49 days
Experimental: Nude mice are injected i.v. with 200,000 highly metastatic human breast cancer cells expressing luciferase (MDA-MB-231-Luc) then are given a compound of Formula (I) or Formula (Ia) once daily for about 10 days and are monitored for tumours by total body scan using Xenogen-IVIS. Mice with a luciferase signal above background in repeated scans in any part of their torso are scored as having metastatic disease. Total light emission in the abdominal region is quantified at time points up to 49 days post surgery and plotted as mean total light yield.
Nude mice were injected i.v. with 200,000 highly metastatic human breast cancer cells expressing luciferase (MDA-MB-231-Luc) then given 3.5 mg/Kg of compound 12, reference compound A, or Reference compound B once daily for 10 days and monitored for tumours by total body scan using Xenogen-IVIS. Mice with a luciferase signal above background in repeated scans in any part of their torso were scored as having metastatic disease. Total light emission in abdominal region was quantified at time points up to 49 days post surgery and plotted as mean total light yield. Control n=12, Reference compound A n=10, Reference compound B n=4; compound 12 n=4.

[2] = test system: MDA-MB-231 human breast cancer cells; assay: mouse Model 2 (colonization, growth and spread of secondary lesions at distal sites); type: in vivo, mice; conditions: 3.5 mg/kg intraperitoneally daily
Experimental: (§1) In all experiments, each compound was administered by intraperitoneally at 3.5 mg/kg.
Another model (Model 2) tested the effect of the compound's ability to inhibit the colonization and subsequent growth and spread of secondary lesions at distal sites. Human tumour cell lines were injected into the bloodstream of recipient mice, followed 2 days later by single daily intraperitoneal injections of the compound (3.5 mg/kg in 1% DMSO) for the entire course of the experiment. Tumour burden was monitored longitudinally for up to 8 weeks in vivo by live luminescence imaging, and subsequently histology performed on affected organs at the end of the experiment.
MDA-MB-231 human breast cancer cells were used in each of the three xenograft models of metastatic breast cancer.

[3] = test system: MDA-MB-436 cells (triple negative breast invasive ductal carcinoma); assay: mouse Model 4 (tumour growth at transplantation site), MDA-MB-436; type: in vivo, mice; conditions: 3.5 mg/kg in 1% DMSO intraperitoneal daily; MDA-MB-436 subcutaneous; caliper tumour volume
Experimental: (§2) Another model (Model 4) studied the effect of the compound's ability to inhibit the growth of tumour cells at the transplantation site. Human tumour cell lines were injected subcutaneously into recipient mice, followed 2 days later by single daily intraperitoneal injections of a compound (3.5 mg/kg in 1% DMSO) for the entire course of the experiment. Tumour burden was monitored longitudinally for up to 12 weeks in vivo by palpation and caliper measurements of tumour volume, and subsequently histology performed on tumours at the end of the experiment.
Model 4 tested the effect of compounds of the application to inhibit the growth of tumour cells at the transplantation site. MDA-MB-436 cells were injected subcutaneously into recipient mice, followed 2 days later by single daily intraperitoneal injections of compound 12 (3.5 mg/kg in 1% DMSO) for the entire course of the experiment. Tumour burden was monitored longitudinally for up to 12 weeks in vivo by palpation and caliper measurements of tumour volume, and subsequently histology performed on tumours at the end of the experiment.

[4] = test system: human breast cancer (MDA-MB-231); assay: mouse Model 4 (tumour growth at transplantation site), MDA-MB-231; type: in vivo, mice; conditions: 3.5 mg/kg intraperitoneal injection daily; MDA-MB-231 subcutaneous; caliper tumour volume; listed as compound 12
Experimental: as §1, §2
Model 4 tested the effect of compounds of the application to inhibit the growth of tumour cells at the transplantation site. Human tumour cell lines were injected subcutaneously into recipient mice, followed 2 days later by single daily intraperitoneal injections of Bcl3 inhibitor (3.5 mg/kg in 1% DMSO) for the entire course of the experiment. Tumour burden was monitored longitudinally for up to 12 weeks in vivo by palpation and caliper measurements of tumour volume, and subsequently histology performed on tumours at the end of the experiment.
FIGS. 6 and 7 show the comparative effect of compound 12 (3.5 mg/kg intraperitoneal injection) on Model 4 in human breast cancer (MDA-MB-231) and human colorectal cell lines (SW480), respectively. […]

Compound: COc1ccc(C(=O)Nc2ccccc2C(=O)NCCN2CCOCC2)c(F)c1 [Compound 12, 2-fluoro-4-methoxy-N-(2-((2-morpholinoethyl)carbamoyl)phenyl) benzamide]
- disease free survival [1]: 100%
- effect on subsequent growth and spread of the secondary tumours (FIG. 9) [2]: significant effects
- average tumour growth at the transplantation site [3]: significant reductions in average tumour growth
- tumour growth at the transplantation (xenograft) site [4]: significant reductions in average tumour growth

— patent US10273218B2, “BCL-3 inhibitors” (University College Cardiff Consultants Limited, priority 2014, dated 2019)
